Columns and labels:
[1] = system: A2780 ovarian cancer cells; assay: Antiproliferative activity to A2780 ovarian cancer cells; type: cell-based; conditions: Homo sapiens, A2780, read-out: IC50 A2780 (antiproliferative activity)
tubulin = assay: Promotion of in vitro tubulin polymerization; type: biochemical; conditions: in vitro tubulin assembly

## C/C(=C\c1csc(C)n1)[C@@H]1C[C@@H]2O[C@]2(C)CCC[C@H](C)[C@H](O)[C@@H](C)C(=O)C(C)(C)[C@@H](O)CC(=O)O1 [Compound 2, epothilone B]
[1]
  IC50: 1.9 ± 0.2 nM

## C/C1=C/C[C@@H](/C(C)=C/c2csc(C)n2)OC(=O)C[C@H](O)C(C)(C)C(=O)[C@H](C)[C@@H](O)[C@@H](C)CCC1 [Compound 4, epothilone D]
[1]
  IC50: 6.8 ± 1.7 nM
tubulin
  ED50, Tb polym. (promotion of tubulin polymerization): 440 ± 20 nM

— article PMC2930754 (Chemical communications (Cambridge, England), 2010)
